Assay [1] concerns beet armyworm (BAW; Spodoptera exigua: Lepidoptera). The assay is described as follows: 96-well microtiter plate-based high throughput (HTS) bioassay on beet armyworm (BAW HTS). The class given is in vivo. The following applies: 144 h, read-out: BAW HTS. The procedure: (§1) Bioassays on beet armyworm (BAW; Spodoptera exigua: Lepidoptera) were conducted using either a 96-well microtiter plate-based high throughput (HTS) bioassay or a 128-well diet tray assay. The HTS assay is based on a modification of Lewer et al. J. Nat. Prod. 2006, 69, 1506. BAW eggs were placed on top of artificial diet (100 μL) in each well of a 96-well microtiter plate. The diet was pretreated with test compounds (12 μg dissolved in 30 μL of DMSO-acetone-H2O mixture) layered on top of the diet using a liquid handling system and then allowed to dry for several hours. Infested plates were then covered with a layer of sterile cotton batting and the plate lid, and then held in the dark at 29° C. Mortality was recorded at 6 days post-treatment. Each plate had six replicates. The percent mortality was calculated from the average of the six replicates. In the case of the 128-well diet assay, three to five second instar BAW larvae were placed in each well (3 mL) of the diet tray that had been previously filled with 1 mL of artificial diet to which 50 ug/cm^2 of the test compound (dissolved in 50 μL of 90:10 acetone-water mixture) had been applied (to each of eight wells) and then allowed to dry. Trays were covered with a clear self-adhesive cover, and held at 25° C., 14:10 light-dark for six days. Percent mortality was recorded for the larvae in each well; activity in the eight wells was then averaged. In Table 4, under both the BAW HTS and BAW 50 headings, an “A” means that the compound was tested and at least 50 percent mortality was observed whereas, “B” means that either (1) the compound was tested and less than 50 percent mortality was observed or (2) the compound was not tested.

Assay [2] shares this test system. In words: 128-well diet tray assay on beet armyworm (BAW 50). Format: in vivo. As to conditions: 144 h, read-out: BAW 50. The procedure:
as §1

[3] abbreviates: percent mortality, 96-well HTS, 12 μg test compound on diet, BAW eggs, 6 days post-treatment, 29° C., average of six replicates.
[4] abbreviates: percent mortality, 128-well diet assay, 50 ug/cm^2 of test compound on diet, second instar BAW larvae, six days, 25° C., average of eight wells.

Molecules are shown by their SMILES. Read-outs that look alike come from different tables or passages of the source. A value given as a limit tells only on which side of the number the result lay.

Turning to `CCCO[C@@H]1[C@@H](OC)[C@H](C)O[C@@H](O/N=C/c2ccc(/C=C/c3ccc(OC(F)(F)F)cc3)cc2)[C@@H]1OC` [Compound 1, 4-[(E)-2-(4-trifluoromethoxyphenyl)-vinyl]-benzaldehyde O-((2S,3R,4R,5S,6S)-3,5-dimethoxy-6-methyl-4-propoxy-tetrahydropyran-2-yl)-oxime], the pest or weed control at 12 µg/well, 12 µg/well in assay [1] (setting [3]) was more than 50%. Moreover, in assay [2] (setting [4]), the pest or weed control at 50 µg/cm2, 50 µg/cm2 was more than 50%.
`CCO[C@@H]1[C@@H](OC)[C@H](C)O[C@@H](OC(=O)Nc2ccc(/N=N/c3ccc(OC(F)(F)F)cc3)cc2)[C@@H]1OC` [Compound 20, [4-(4-Trifluoromethoxy-phenylazo)-phenyl]-carbamic acid (2S,3R,4R,5S,6S)-4-ethoxy-3,5-dimethoxy-6-methyl-tetrahydropyran-2-yl ester]: in assay [1], the pest or weed control at 12 µg/well, 12 µg/well was more than 50%. Besides, the pest or weed control at 50 µg/cm2, 50 µg/cm2 in assay [2] was more than 50%.
With `CO[C@@H]1[C@@H](OC)[C@H](C)O[C@@H](O/N=C/c2ccc(/C=C/c3ccc(C(F)(F)F)cc3)cc2)[C@@H]1OC` [Compound 12, 4-[(E)-2-(4-Trifluoromethylphenyl)-vinyl]-benzaldehyde O-((2S,3R,4R,5S,6S)-3,4,5-trimethoxy-6-methyl-tetrahydropyran-2-yl)-oxime], the pest or weed control at 12 µg/well, 12 µg/well in assay [1] (setting [3]) was more than 50%. In addition, in assay [2] (setting [4]), the pest or weed control at 50 µg/cm2, 50 µg/cm2 was more than 50%.

The values above are taken from patent US8394774B2, “Pesticidal compositions” (Dow AgroSciences, LLC., priority 2009, dated 2013).
